ChEMBL document CHEMBL5032508, “Synthesis of Fluorescent Probes Targeting Tumor-Suppressor Protein FHIT and Identification of Apoptosis-Inducing FHIT Inhibitors” (J Med Chem, 2021)
One block for each compound: values may come before it. The source made the active and inactive calls. The rule behind the calls is not given here.

Experiments:
[1] = target: Bis(5'-adenosyl)-triphosphatase (Homo sapiens) (UniProt P49789); experiment: Inhibition of recombinant human FHIT assessed as reduction in AP3Aase activity at 50 uM measured after 45 mins by HPLC analysis relative to control
[2] = target: Bis(5'-adenosyl)-triphosphatase (Homo sapiens) (UniProt P49789); experiment: Inhibition of recombinant human FHIT at 10 uM incubated for 1 hr by fluorescence based analysis relative to control
[3] = target: Bis(5'-adenosyl)-triphosphatase (Homo sapiens) (UniProt P49789); experiment: Inhibition of recombinant human FHIT at 100 uM incubated for 1 hr by fluorescence based analysis relative to control
[4] = test system: HCC827-Luc; experiment: Induction of apoptosis in human HCC827-Luc cells expressing FHIT assessed as reduction in cell viability measured after 24 hrs by CCK-8 assay; assay type: functional, cell-based
[5] = test system: NCI-H460-Luc; experiment: Induction of apoptosis in human NCI-H460-Luc cells weakly expressing FHIT assessed as reduction in cell viability measured after 24 hrs by CCK-8 assay; assay type: functional, cell-based
[6] = test system: HCC827-Luc; experiment: Induction of caspase-mediated apoptosis in human HCC827-Luc cells assessed as reduction in cell viability pretreated with caspase inhibitor Z-VAD-fmk for 1 hr followed by compound addition and measured after 72 hrs by CCK-8 assay; assay type: functional, cell-based
[7] = test system: HCC827-Luc; experiment: Induction of apoptosis in human HCC827-Luc cells assessed as increase in caspase 3/7 activity at 10 uM measured after 24 hrs by confocal fluorescence microscopic analysis; assay type: functional, cell-based
[8] = test system: NCI-H460-Luc; experiment: Induction of apoptosis in human NCI-H460-Luc cells weakly expressing FHIT cocultured with human HCC827-Luc cells assessed as PI-positive cells at 10 uM incubated for 12 hrs by calcein AM/Hoechst/PI staining based confocal fluorescence microscopic analysis; assay type: functional, cell-based
[9] = target: Bis(5'-adenosyl)-triphosphatase (Homo sapiens) (UniProt P49789); experiment: Noncompetitive inhibition of human recombinant FHIT assessed as reduction in hydrolysis of TG-CMP at 1 to 9 uM measured for 30 mins by Lineweaver-Burk plot analysis; conditions: dose 1-9 µM
[10] = test system: HCC827-Luc; experiment: Induction of apoptosis in human HCC827-Luc cells expressing FHIT cocultured with human NCI-H460-Luc cells assessed as PI-positive cells at 10 uM incubated for 12 hrs by calcein AM/Hoechst/PI staining based confocal fluorescence microscopic analysis; assay type: functional, cell-based
[11] = test system: HCC827-Luc; experiment: Induction of apoptosis in human HCC827-Luc cells assessed as increase in caspase 3/7 activity at 1 uM measured after 24 hrs by confocal fluorescence microscopic analysis; assay type: functional, cell-based
[12] = test system: COc1ccc(-c2c3ccc(=O)cc-3oc3cc(OCOP(=O)(O)OC[C@H]4O[C@@H](n5ccc(N)nc5=O)[C@H](O)[C@@H]4O)ccc23)c(C)c1; experiment: Substrate activity at human recombinant FHIT assessed as Kcat by Michaelis-Menten analysis
[13] = test system: COc1ccc(-c2c3ccc(=O)cc-3oc3cc(OCOP(=O)(O)OC[C@H]4O[C@@H](n5ccc(=O)[nH]c5=O)[C@H](O)[C@@H]4O)ccc23)c(C)c1; experiment: (§1) Substrate activity at human recombinant FHIT assessed as Kcat/Km by Michaelis-Menten analysis
[14] = test system: COc1ccc(-c2c3ccc(=O)cc-3oc3cc(OCOP(=O)(O)OC[C@H]4O[C@@H](n5cnc6c(=O)[nH]c(N)nc65)[C@H](O)[C@@H]4O)ccc23)c(C)c1; experiment: as §1
[15] = test system: COc1ccc(-c2c3ccc(=O)cc-3oc3cc(OCOP(=O)(O)OC[C@H]4O[C@@H](n5ccc(N)nc5=O)[C@H](O)[C@@H]4O)ccc23)c(C)c1; experiment: as §1
[16] = test system: COc1ccc(-c2c3ccc(=O)cc-3oc3cc(OCOP(=O)(O)OC[C@H]4O[C@@H](n5cnc6c(N)ncnc65)[C@H](O)[C@@H]4O)ccc23)c(C)c1; experiment: as §1
[17] = test system: COc1ccc(-c2c3ccc(=O)cc-3oc3cc(OCOP(=O)(O)OC[C@H]4O[C@@H](n5ccc(N)nc5=O)[C@H](O)[C@@H]4O)ccc23)c(C)c1; experiment: Substrate activity at human recombinant FHIT assessed as Km by Michaelis-Menten analysis

Sequence of Bis(5'-adenosyl)-triphosphatase (Homo sapiens) (P49789 whole entry, looked up): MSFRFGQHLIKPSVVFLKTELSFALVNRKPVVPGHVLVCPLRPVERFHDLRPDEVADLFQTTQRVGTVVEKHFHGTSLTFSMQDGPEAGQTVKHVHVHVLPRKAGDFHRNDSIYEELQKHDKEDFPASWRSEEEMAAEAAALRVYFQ
Sequence of Bis(5'-adenosyl)-triphosphatase (Homo sapiens), P49789 (P49789 whole entry): as the sequence (P49789 whole entry, looked up) above

Compound: O=C(O)c1ccc2[nH]c(-c3ccnc(-c4cccnc4)c3)nc2c1
inhibition [1]: 95% | inhibition [2]: > 80%

Compound: Nc1ncnc2c1ncn2[C@@H]1O[C@H](COP(=O)(O)OP(=O)(O)OP(=O)(O)OC[C@H]2O[C@@H](n3cnc4c(N)ncnc43)[C@H](O)[C@@H]2O)[C@@H](O)[C@H]1O
inhibition [3]: > 50%

Compound: Cc1c(OCC#N)ccc2c3c(c(=O)oc12)CCCC3
Activity [4]: inactive | Activity [5]: inactive

Compound: CN[C@@H]1C[C@H]2O[C@@](C)([C@@H]1OC)n1c3ccccc3c3c4c(c5c6ccccc6n2c5c31)C(=O)NC4
Activity [11]: inactive

Compound: CCOC(=O)c1c(C)sc(N)c1C(=O)OCC
inhibition [2]: > 80%

Compound: Nc1ncnc2c1ncn2[C@@H]1O[C@H](COP(=O)(O)OP(=O)(O)OP(=O)(O)OP(=O)(O)OC[C@H]2O[C@@H](n3cnc4c(N)ncnc43)[C@H](O)[C@@H]2O)[C@@H](O)[C@H]1O
inhibition [3]: > 50%

Compound: O=C(Cn1cc([N+](=O)[O-])ccc1=O)NC(=O)NCc1ccco1
inhibition [1]: 59% | inhibition [2]: > 80%

Compound: Cc1c(OCC(=O)O)ccc2c3c(c(=O)oc12)CCCC3
Activity [4]: inactive | Activity [5]: inactive

Compound: Bis(5'-adenosyl)-triphosphatase (Homo sapiens), P49789
kcat [12]: 0.35 s⁻¹ | kcat/Km [13]: 1830 M⁻¹ s⁻¹ | kcat/Km [14]: 967 M⁻¹ s⁻¹ | kcat/Km [15]: 9330 M⁻¹ s⁻¹ | kcat/Km [16]: 6330 M⁻¹ s⁻¹ | Km [17]: 37 µM

Compound: CN1C(=O)N/C(=C/c2cccn2-c2ccc(C(=O)O)cc2)C1=O
inhibition [1]: 51% | inhibition [2]: > 80%

Compound: Cc1c(OCc2nn[nH]n2)ccc2c3c(c(=O)oc12)CCCC3
Activity [4]: inactive | Activity [5]: inactive

Continued, in another order:

inhibition [3]: > 50%
Compound: Nc1ncnc2c1ncn2[C@@H]1O[C@H](COP(=O)(O)O)[C@@H](O)[C@H]1O

inhibition [9]: Active
Compound: Cc1c(OCC(=O)NO)ccc2c3c(c(=O)oc12)CCCC3
Activity [6]: inactive | Activity [7]: Active | Activity [4]: Active | Activity [8]: inactive | Activity [5]: Active | Activity [10]: Active

inhibition [2]: > 80%
Compound: COCC(=O)N1CC[C@@H]2[C@H]1C(=O)NC[C@H](CCC(=O)OC)N2C

inhibition [1]: 76% | inhibition [2]: > 80%
Compound: Cc1c(OCc2nn[nH]n2)ccc2c3c(c(=O)oc12)CCC(C)C3 (stereo not given)

inhibition [2]: > 80%
Compound: NNC(=O)c1nn(-c2ccccc2)c(=O)cc1O

inhibition [2]: > 80%
Compound: O=C(O)c1ccc(/C=N/NC(=O)c2nc(-c3ccccc3)n(-c3ccccc3)n2)cc1
